Key:
B1 bradykinin receptor [1] = target: T1, B1 bradykinin receptor (Homo sapiens, UniProt P46663); assay: Inhibition of human B1 receptor
T1 sequence (P46663 whole entry): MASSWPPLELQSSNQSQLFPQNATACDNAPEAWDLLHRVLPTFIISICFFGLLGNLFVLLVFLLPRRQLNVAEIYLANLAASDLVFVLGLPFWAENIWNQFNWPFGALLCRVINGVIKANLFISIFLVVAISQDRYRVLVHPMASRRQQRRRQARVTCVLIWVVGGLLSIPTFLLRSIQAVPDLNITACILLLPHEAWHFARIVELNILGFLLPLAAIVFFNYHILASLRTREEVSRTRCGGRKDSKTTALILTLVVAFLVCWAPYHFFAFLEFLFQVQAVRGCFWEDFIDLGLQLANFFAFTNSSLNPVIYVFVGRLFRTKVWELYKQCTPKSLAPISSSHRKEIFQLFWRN

B1 bradykinin receptor [2] = target: T1, B1 bradykinin receptor; assay: Inhibition of human B1 receptor by calcium influx functional assay
[3] = Clearance in rat at 1 mg/kg, iv; assay type: ADME, organism-based; set-up: dose 1 mg/kg, route intravenous; conditions: in vivo
[4] = Volume of distribution in rat at 1 mg/kg, iv; assay type: ADME, organism-based; set-up: dose 1 mg/kg, route intravenous; conditions: in vivo, read-out: Vss
[5] = Oral bioavailability in rat at 10 mg/kg, po; assay type: ADME, organism-based; conditions: in vivo
[6] = Half life in rat at 1 mg/kg, iv; assay type: ADME, organism-based; set-up: dose 1 mg/kg, route intravenous; conditions: in vivo

Row | Structure (SMILES) | IC50 (B1 bradykinin receptor [1]) | IC50 (B1 bradykinin receptor [2]) | other results
1 | CC(C)(C)NCc1ccc2c(c1)CCC[C@H]2NC(=O)C[C@@H]1CCCCN1S(=O)(=O)c1cccc2cnccc12 | 610 nM | 4300 nM | –
2 | Cn1cnc(S(=O)(=O)N2CCCC[C@H]2CC(=O)N[C@@H]2CCCc3cc(CNC(C)(C)C)ccc32)c1 | > 100000 nM | > 40000 nM | –
3 | O=C(C[C@@H]1CCCCN1S(=O)(=O)c1cccc(C(F)(F)F)c1)N[C@@H]1CCCc2cc(CNCC(F)(F)F)ccc21 | 1900 nM | 700 nM | –
4 | CC(C)(C)NCc1ccc2c(c1)OCC[C@H]2NC(=O)C[C@@H]1CCCN1S(=O)(=O)c1cccc(C(F)(F)F)c1 | 1500 nM | 960 nM | –
5 | CC(C)(C)NCc1ccc2c(c1)CCC[C@H]2NC(=O)C[C@@H]1CCCCN1S(=O)(=O)c1cccc(C(F)(F)F)c1 | – | – | clearance [3]: 36.7 mL/min/kg; Vd [4]: 5.4 L/kg; bioavailability [5]: 19%; half-life [6]: 2 h
6 | CCCCOc1ccc(S(=O)(=O)N2CCCC[C@H]2CC(=O)N[C@@H]2CCCc3cc(CNC(C)(C)C)ccc32)cc1 | 1200 nM | 590 nM | –
7 | CC(C)(C)NCc1ccc2c(c1)CCC[C@H]2NC(=O)C[C@@H]1CCCCN1S(=O)(=O)c1ccc(C(F)(F)C(F)(F)F)cc1 | 360 nM | 210 nM | –
8 | CC(C)(C)NCc1ccc2c(c1)CCC[C@H]2NC(=O)C[C@@H]1CCCCN1S(=O)(=O)c1cccc2cccnc12 | 220 nM | 440 nM | –
9 | CC(C)(C)NCc1ccc2c(c1)CCC[C@H]2NC(=O)C[C@@H]1CCCCN1S(=O)(=O)c1ccc(Cl)cc1 | 560 nM | 810 nM | –
10 | CC(C)(C)NCc1ccc2c(c1)OCC[C@H]2NC(=O)C[C@@H]1CCCCN1S(=O)(=O)c1cccc(C(F)(F)F)c1 | 160 nM | 95 nM | –
11 | CC(C)(C)NCc1ccc2c(c1)CCC[C@H]2NC(=O)C[C@@H]1CCCCN1S(=O)(=O)c1ccc(-c2ccccc2)cc1 | 690 nM | 540 nM | –
12 | O=C(C[C@@H]1CCCCN1S(=O)(=O)c1cccc(C(F)(F)F)c1)N[C@@H]1CCCc2cc(CN3CCC3)ccc21 | 1100 nM | 4300 nM | –
13 | COc1ccc(S(=O)(=O)N2CCCC[C@H]2CC(=O)N[C@@H]2CCCc3cc(CNC(C)(C)C)ccc32)cc1 | 780 nM | 1400 nM | –
14 | CC(C)(C)NCc1ccc2c(c1)CCC[C@H]2NC(=O)C[C@@H]1CCCCN1S(=O)(=O)c1ccccc1 | 1700 nM | 2400 nM | –

Further lines, with some results ahead:

Row | IC50 (B1 bradykinin receptor [1]) | IC50 (B1 bradykinin receptor [2]) | Structure (SMILES) | other results
15 | 150 nM | 180 nM | CC(C)(C)NCc1ccc2c(c1)CCC[C@H]2NC(=O)C[C@@H]1CCCCN1S(=O)(=O)c1cccc2nsnc12 | –
16 | 59 nM | 230 nM | CC(C)(C)CNCc1ccc2c(c1)CCC[C@H]2NC(=O)C[C@@H]1CCCCN1S(=O)(=O)c1cccc(C(F)(F)F)c1 | –
17 | 15 nM | 22 nM | Cc1ccc(S(=O)(=O)N2CCCC[C@H]2CC(=O)N[C@@H]2CCCc3cc(CNC(C)(C)C)ccc32)cc1Cl | –
18 | 72 nM | 110 nM | CC(C)NCc1ccc2c(c1)CCC[C@H]2NC(=O)C[C@@H]1CCCCN1S(=O)(=O)c1cccc(C(F)(F)F)c1 | –
19 | 48 nM | 47 nM | O=C(C[C@@H]1CCCCN1S(=O)(=O)c1cccc(C(F)(F)F)c1)N[C@@H]1CCCc2cc(CNC3CC3)ccc21 | –
20 | 62 nM | 160 nM | CN(C)Cc1ccc2c(c1)CCC[C@H]2NC(=O)C[C@@H]1CCCCN1S(=O)(=O)c1cccc(C(F)(F)F)c1 | –
21 | 93 nM | 130 nM | Cc1ccc(S(=O)(=O)N2CCCC[C@H]2CC(=O)N[C@@H]2CCCc3cc(CNC(C)(C)C)ccc32)cc1 | –
22 | 58 nM | 54 nM | O=C(C[C@@H]1CCCCN1S(=O)(=O)c1cccc(C(F)(F)F)c1)N[C@@H]1CCCc2cc(CNC3CCC3)ccc21 | –
23 | 16 nM | 31 nM | O=C(C[C@@H]1CCCCN1S(=O)(=O)c1cccc(C(F)(F)F)c1)N[C@@H]1CCCc2cc(CNCC3CC3)ccc21 | –
24 | 13 nM | 42 nM | CC(C)CNCc1ccc2c(c1)CCC[C@H]2NC(=O)C[C@@H]1CCCCN1S(=O)(=O)c1cccc(C(F)(F)F)c1 | –
25 | 11 nM | 16 nM | Cc1ccc(S(=O)(=O)N2CCCC[C@H]2CC(=O)N[C@@H]2CCCc3cc(CNC(C)(C)C)ccc32)cc1C(F)(F)F | –
26 | 120 nM | 73 nM | CC(C)(C)NCc1ccc2c(c1)CCC[C@H]2NC(=O)C[C@@H]1CCCCN1S(=O)(=O)c1cccc(Cl)c1 | –
27 | 14 nM | 66 nM | CC(C)(C)NCc1ccc2c(c1)CCC[C@H]2NC(=O)C[C@@H]1CCCCN1S(=O)(=O)c1csc2ccccc12 | –
28 | 21 nM | 46 nM | COCCNCc1ccc2c(c1)CCC[C@H]2NC(=O)C[C@@H]1CCCCN1S(=O)(=O)c1cccc(C(F)(F)F)c1 | –

Reference: ChEMBL document CHEMBL1146114, “A new class of bradykinin 1 receptor antagonists containing the piperidine acetic acid tetralin core” (Bioorg Med Chem Lett, 2006)
